Source: patent publication US20240270786A1, “STEROID COMPOUNDS” (Epirium Bio Inc., priority 2022, published 2024)

Experiments:
Type in all cases: biochemical, mouse
[1] = system: mitochondrial ATP synthase; experiment: ATP synthesis (oxygen consumption, Seahorse XF96) in fresh heart mitochondria; conditions: Complex I or Complex II substrates (FIG. 1, FIG. 2)
Description: (§1) To assess whether the fraction of synthetic and reverse hydrolytic activities of mitochondrial ATP synthase can be measured in the same preparation, a protocol was developed to monitor changes in oxygen consumption and proton release in response to changes in mitochondrial ATP synthase activity. The proton released and the concomitant changes in the pH can be monitored using the ECAR (extracellular acidification) channel in the Agilent Seahorse XF analyzer using isolated mitochondria, to ensure that the changes in pH cannot be attributed to glycolysis or other contributors to ECAR.
Mice were anesthetized with isoflurane followed by a cervical dislocation, and the heart was immediately removed and placed in ice cold relaxation buffer (5 mM sodium pyrophosphate, 100 mM KCl, 5 mM EGTA, 5 mM HEPES; pH 7.4). […] The mitochondrial pellets were re-suspended in ice cold HES buffer and mitochondrial protein was measured with a BCA assay (Pierce). […]
Oxygen consumption was measured in isolated fresh intact mitochondria from mouse heart, as oxygen consumption is linked to maximal ATP synthesis and proton release when mitochondria are respiring either in the presence of substrates and ADP (ATP synthesizing mitochondria or state 3) or in the presence of substrates but not ADP (state 4). […]

[2] = system: mitochondrial ATP synthase; experiment: Maximal ATP hydrolysis capacity in frozen heart mitochondria; conditions: oligomycin at different concentrations in the assay media
Description: Plates were loaded with 0.75-1.5 μg of mouse heart mitochondria, or 25 μg of cell lysate. Cell lysates were prepared by subjecting the samples to 4 cycles of free thaw (liquid nitrogen—37° C. water bath) before measuring protein concentration. When assessing compounds effect on respirometry, the compounds were added in MAS after sample centrifugation. Initial respiration of the samples was sustained by the addition of 5 mM succinate+2 μM rotenone in the MAS after centrifugation. Injections were performed at the following final concentration in the well: Antimycin A (2 μM), oligomycin (5 μM), FCCP (1 μM), ATP (20 mM). To assess maximal ATP concentration, ATP was injected consecutively. An additional assay was developed to determine the maximal ATP hydrolysis capacity in frozen mitochondria. Maximal ATP hydrolytic capacity was assessed in frozen heart mitochondria where mitochondrial respiration is inhibited by Antimycin A and maximal ATP hydrolysis is driven by co-injection of FCCP and ATP, followed by inhibition in the presence of oligomycin.

[3] = system: mitochondrial ATP synthase; experiment: ATP hydrolysis (acidification, Seahorse XF96) in fresh heart mitochondria; conditions: fresh heart mitochondria (FIG. 1, FIG. 2)
Description: as §1
Mice were anesthetized with isoflurane followed by a cervical dislocation, and the heart was immediately removed and placed in ice cold relaxation buffer (5 mM sodium pyrophosphate, 100 mM KCl, 5 mM EGTA, 5 mM HEPES; pH 7.4). The heart was squeezed with tweezers to remove blood, minced with scissors, and then placed in a glass-glass Dounce homogenizer with 3 mL of HES homogenization buffer (250 mM sucrose, 5 mM HEPES, 1 mM EDTA; pH to 7.2, adjusted with KOH). The heart tissue was homogenized first with the loose pestle and followed by the tight pestle. The homogenized tissue was placed in a pre-chilled 15 mL conical tube and centrifuged at 900×g (4° C.) for 10 minutes (min). The supernatant was removed, placed in a new tube and centrifuged again at 900×g for 10 min. The supernatant was then transferred to 2 mL microcentrifuge tubes and centrifuged at 10,000×g (4° C.) for 10 min. The mitochondrial pellets were re-suspended in ice cold HES buffer and mitochondrial protein was measured with a BCA assay (Pierce). The concentrated mitochondrial pellet was stored on ice. […]
ATP hydrolysis capacity or state 4 acidification was measured using Seahorse XF96 as described in Divakaruni et al. (2018) Anal Biochem 552:60-65 and Acin-Perez et al. (2021) Life 11(9):949, in MAS (70 mM Sucrose, 220 mM Mannitol, 5 mM KH2PO4, 5 mM MgCl2, 1 mM EGTA, 2 mM HEPES; pH 7.2). […]

Structure (SMILES): CC[C@H]1/C=C/C=C/C[C@@H](C)[C@H](O)[C@@](C)(O)C(=O)[C@@H](C)[C@H](O)[C@@H](C)C(=O)[C@@H](C)[C@H](O)[C@@H](C)/C=C/C(=O)O[C@@H]2[C@H](C)[C@H](CC1)O[C@]1(CC[C@H](C)[C@H](C[C@@H](C)O)O1)[C@H]2C [Oligomycin, oligomycin, reference compound]
- ATP synthesis [1]: worked as expected
- ATP hydrolysis [2]: dose dependent inhibition of ATP hydrolysis
- ATP hydrolysis [3]: worked as expected
